Assay results taken from US11214803B2, “Modulators of YAP1 expression” (Ionis Pharmaceuticals, Inc., priority 2019, dated 2022).
Strand notation (5' to 3'): a small letter for the sugar, then the base; units joined by * are phosphorothioate-linked, units joined directly phosphodiester-linked; [ ] holds rarer units or linkages, { } end groups; capitals alone tell only the bases. k = constrained ethyl (cEt); [5mC] = 5-methylcytosine; d = 2'-deoxy (DNA)

system: Yap1 mRNA; experiment: Antisense inhibition of human Yap1 in A-431 cells by cEt gapmers, single dose (Example 4, RTS4814); assay type: cell-based; conditions: Table 14; A-431 cells, 5,000 cells per well, free uptake, 2,000 nM, approximately 48 hours; RTS4814; normalized to RIBOGREEN; Yap1 mRNA relative to untreated control; * = targets amplicon region of primer probe set
Summary of the method: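 A-431 cells took up 3-10-3 cEt gapmers (16-mer, full phosphorothioate, 5-methylcytosines) by free uptake at 2,000 nM for about 48 h. Yap1 mRNA was quantified by qRT-PCR, normalized to total RNA (RIBOGREEN), and reported as % of untreated control.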

| Substance | YAP1 (% UTC) |
| --- | --- |
| 1074624 (antisense kG*kG*k[5mC]*dT*dT*dA*dT*dT*d[5mC]*dT*dA*dG*dA*kA*kA*k[5mC]) [Compound 1074624] | 65 % UTC |
| 1076544 (antisense kG*kA*k[5mC]*d[5mC]*dA*dA*d[5mC]*d[5mC]*dT*d[5mC]*d[5mC]*d[5mC]*d[5mC]*kT*kT*kG) [Compound 1076544] | 89 % UTC |
| 1076320 (k[5mC]*kA*kT*dT*dA*dA*d[5mC]*d[5mC]*dT*d[5mC]*dA*d[5mC]*d[5mC]*k[5mC]*kA*kT; antisense) [Compound 1076320] | 52 % UTC |
| 1075776 (kA*kT*kG*dT*dG*dA*dT*dA*dT*dG*dG*dA*dT*kT*k[5mC]*kT; antisense) [Compound 1075776] | 10 % UTC |
| 1074720 (antisense kG*kA*kA*dG*dA*dT*d[5mC]*dT*d[5mC]*d[5mC]*dA*dT*dA*kT*kT*k[5mC]) [Compound 1074720] | 58 % UTC |

same assay, conditions: Table 15; A-431 cells, 5,000 cells per well, free uptake, 2,000 nM, approximately 48 hours; RTS4814; normalized to RIBOGREEN; Yap1 mRNA relative to untreated control; * = targets amplicon region of primer probe set

| Substance | YAP1 (% UTC) |
| --- | --- |
| 1075137 (antisense kG*kA*kT*dT*dA*dA*dA*dT*dA*d[5mC]*dT*dG*dA*k[5mC]*k[5mC]*kA) [Compound 1075137] | 3 % UTC |
| 1074721 (antisense kG*kG*kA*dA*dG*dA*dT*d[5mC]*dT*d[5mC]*d[5mC]*dA*dT*kA*kT*kT) [Compound 1074721] | 43 % UTC |
| 1074849 (kT*kG*kT*dT*dA*dT*dG*dA*dT*dA*dG*dG*d[5mC]*kA*k[5mC]*kA; antisense) [Compound 1074849] | 18 % UTC |
| 1075841 (kA*kT*kT*dT*dA*dG*dG*dT*dA*d[5mC]*dT*d[5mC]*dA*kG*kT*kA; antisense) [Compound 1075841] | 27 % UTC |
| 1076545 (antisense kA*kA*k[5mC]*d[5mC]*dA*dA*d[5mC]*d[5mC]*dT*dT*d[5mC]*d[5mC]*d[5mC]*kT*kA*k[5mC]) [Compound 1076545] | 68 % UTC |
| 1076289 (kA*kA*k[5mC]*dG*dG*dA*d[5mC]*dA*dA*d[5mC]*dT*dT*dA*kA*k[5mC]*kA; antisense) [Compound 1076289] | 21 % UTC |
| 1074209 (antisense k[5mC]*k[5mC]*kG*dG*dA*dG*d[5mC]*d[5mC]*dT*d[5mC]*dA*dT*dG*kG*kG*k[5mC]) [Compound 1074209] | 72 % UTC |
| 1075553 (kT*kG*kA*dT*dT*dA*dT*dA*dA*d[5mC]*dA*dT*dG*k[5mC]*kT*kG; antisense) [Compound 1075553] | 77 % UTC |
| 1076129 (k[5mC]*kA*kT*dA*dA*dA*d[5mC]*d[5mC]*dT*dT*dA*dG*dT*k[5mC]*k[5mC]*kT; antisense) [Compound 1076129] | 26 % UTC |

same assay, conditions: Table 16; A-431 cells, 5,000 cells per well, free uptake, 2,000 nM, approximately 48 hours; RTS4814; normalized to RIBOGREEN; Yap1 mRNA relative to untreated control cells

| Substance | YAP1 (% UTC) |
| --- | --- |
| 1074594 (antisense kT*kA*kG*dG*dA*dG*d[5mC]*dA*dA*dG*dT*d[5mC]*dT*kT*kG*kT) [Compound 1074594] | 6 % UTC |
| 1075106 (antisense k[5mC]*kA*kA*dA*dT*dT*dA*dT*dA*dA*dG*dG*dT*k[5mC]*k[5mC]*kT) [Compound 1075106] | 10 % UTC |
| 1074498 (kA*k[5mC]*kA*dA*dT*dA*dA*d[5mC]*d[5mC]*dA*dT*d[5mC]*d[5mC]*k[5mC]*kA*kA; antisense) [Compound 1074498] | 17 % UTC |
| 1074274 (antisense kG*kT*kT*d[5mC]*dT*dT*dA*dT*dG*dG*dT*dT*dT*kA*kT*kA) [Compound 1074274] | 4 % UTC |
| 1075938 (kG*kA*kA*dT*dA*dT*dA*dT*dG*dG*dG*dT*dT*kT*k[5mC]*kA; antisense) [Compound 1075938] | 55 % UTC |
| 1074626 (antisense k[5mC]*kT*kG*dT*dT*dA*dT*dG*dA*dA*d[5mC]*d[5mC]*d[5mC]*kT*kT*kG) [Compound 1074626] | 5 % UTC |
| 1075618 (kT*kT*kT*dT*dA*dA*dG*dA*dA*d[5mC]*dG*dA*d[5mC]*kA*kT*kA; antisense) [Compound 1075618] | 69 % UTC |
| 1074466 (kA*k[5mC]*k[5mC]*dG*dA*d[5mC]*d[5mC]*d[5mC]*dT*dG*d[5mC]*d[5mC]*dA*kA*kA*kA; antisense) [Compound 1074466] | 32 % UTC |

same assay, conditions: Table 17; A-431 cells, 5,000 cells per well, free uptake, 2,000 nM, approximately 48 hours; RTS4814; normalized to RIBOGREEN; Yap1 mRNA relative to untreated control cells

| Substance | YAP1 (% UTC) |
| --- | --- |
| 1075619 (k[5mC]*kT*kT*dA*dG*dA*dT*dA*d[5mC]*dT*dA*d[5mC]*dT*kT*kT*kG; antisense) [Compound 1075619] | 54 % UTC |
| 1075875 (kA*k[5mC]*kT*dT*dA*dA*d[5mC]*dA*dA*d[5mC]*d[5mC]*d[5mC]*dT*kA*k[5mC]*kG; antisense) [Compound 1075875] | 72 % UTC |
| 1074243 (antisense kT*k[5mC]*kT*dG*dA*d[5mC]*d[5mC]*dA*dG*dA*dA*dG*dA*kT*kG*kT) [Compound 1074243] | 60 % UTC |
| 1075811 (kA*kT*kT*dG*dT*dA*dG*d[5mC]*dA*dA*dT*dA*dG*kA*kG*kT; antisense) [Compound 1075811] | 10 % UTC |
| 1074979 (antisense kA*kT*kT*dG*d[5mC]*d[5mC]*dA*dG*dT*dT*d[5mC]*dT*dT*kG*kT*kT) [Compound 1074979] | 32 % UTC |
| 1075971 (kT*kA*kT*dT*dA*dA*d[5mC]*dA*dT*dA*d[5mC]*d[5mC]*dT*k[5mC]*kA*kT; antisense) [Compound 1075971] | 28 % UTC |
| 1074691 (antisense k[5mC]*k[5mC]*k[5mC]*dT*d[5mC]*d[5mC]*d[5mC]*d[5mC]*d[5mC]*dT*dA*dA*dG*k[5mC]*kT*kA) [Compound 1074691] | 76 % UTC |
| 1074915 (antisense kA*kG*kT*dT*dA*d[5mC]*dA*dT*d[5mC]*d[5mC]*d[5mC]*dG*dA*kG*kT*kG) [Compound 1074915] | 65 % UTC |
| 1074531 (k[5mC]*kA*k[5mC]*dT*dA*dA*dA*d[5mC]*dT*dA*d[5mC]*dT*dT*k[5mC]*kA*kA; antisense) [Compound 1074531] | 73 % UTC |
| 1076195 (kA*kA*kT*dA*dA*d[5mC]*dA*dT*dG*dG*dT*dT*d[5mC]*kT*kG*kT; antisense) [Compound 1076195] | 20 % UTC |

same assay, conditions: Yap1 mRNA remaining as percent of untreated control; 3-10-3 cEt gapmers; A-431 cells; Table 36

| Substance | YAP1 (% UTC) |
| --- | --- |
| 1075158 (k[5mC]*kG*kG*d[5mC]*dA*dA*dA*dA*dA*d[5mC]*dA*dA*dA*kA*kT*k[5mC]; antisense) [compound 1075158] | 76 % UTC |
| 1075926 (antisense kG*kT*kA*dG*dA*dA*d[5mC]*d[5mC]*dT*dA*dT*dA*dT*kT*kA*kT) [compound 1075926] | 25 % UTC |
| 1074870 (kG*kT*kA*dA*dG*dT*dA*d[5mC]*d[5mC]*dT*dA*dA*d[5mC]*kA*kT*kA; antisense) [compound 1074870] | 20 % UTC |

same assay, conditions: Yap1 mRNA remaining as percent of untreated control; 3-10-3 cEt gapmers; A-431 cells; Table 37

| Substance | YAP1 (% UTC) |
| --- | --- |
| 1074231 (antisense kA*kA*kA*dG*dA*dA*dG*dA*d[5mC]*dT*dG*dT*d[5mC]*kG*kA*kA) [compound 1074231] | 8 % UTC |
| 1076375 (antisense kT*kA*kT*dA*dA*d[5mC]*dG*dG*dA*dT*dA*dT*dA*k[5mC]*kA*kA) [compound 1076375] | 22 % UTC |
| 1075479 (kG*kA*k[5mC]*dA*dA*dT*dA*dA*dA*dT*d[5mC]*dT*dG*k[5mC]*k[5mC]*kT; antisense) [compound 1075479] | 77 % UTC |
| 1076247 (kG*kA*k[5mC]*d[5mC]*dA*dA*dA*dA*d[5mC]*dA*dG*d[5mC]*dT*k[5mC]*kT*kT; antisense) [compound 1076247] | 11 % UTC |
| 1074839 (kT*kA*kT*dA*dA*d[5mC]*dA*dA*d[5mC]*dA*dT*dG*d[5mC]*kT*kT*kG; antisense) [compound 1074839] | 33 % UTC |
| 1076215 (kT*kT*kA*dT*dA*dA*d[5mC]*dA*dG*dA*d[5mC]*dT*dG*kG*k[5mC]*kT; antisense) [compound 1076215] | 47 % UTC |
| 1075287 (antisense kT*kA*kT*dT*dA*d[5mC]*dG*dG*dA*d[5mC]*dA*dG*dA*kA*kG*kT) [compound 1075287] | 58 % UTC |
| 1074135 (k[5mC]*k[5mC]*kG*d[5mC]*dG*dG*d[5mC]*d[5mC]*d[5mC]*d[5mC]*dG*d[5mC]*dA*kT*k[5mC]*k[5mC]; antisense) [compound 1074135] | 91 % UTC |

same assay, conditions: table after Table 37, headed TABLE 32 (gapmers targeting SEQ ID NO.: 3); A-431 cells, free uptake, 2,000 nM, approximately 48 hours, RTS4814

| Substance | YAP1 (% UTC) |
| --- | --- |
| 1074884 (kG*kG*kG*d[5mC]*dT*dA*dA*d[5mC]*dT*d[5mC]*d[5mC]*dT*dG*k[5mC]*k[5mC]*kG; antisense) [compound 1074884] | 110 % UTC |
| 1074885 (kA*kG*kG*dG*d[5mC]*dT*dA*dA*d[5mC]*dT*d[5mC]*d[5mC]*dT*kG*k[5mC]*k[5mC]; antisense) [compound 1074885] | 115 % UTC |
